Measured values published in patent US9127037B2, “Crystalline rostafuroxin” (ROSTAQUO S.P.A., priority 2005, dated 2015).

How the values were obtained:
Na—K pump = conditions: cultured renal cells, cited from earlier work
[1] = target: purified sodium, potassium ATPase enzyme (Na—K ATPase); conditions: in vitro; read-out: IC50, displacement of ouabain from its binding sites on purified Na—K ATPase; cited from earlier work
[2] = test system: other receptors involved in blood pressure regulation or hormonal control; conditions: in vitro; cited from earlier work
[3] = test system: rats made hypertensive by chronic infusion of ouabain; conditions: ouabain 50 microg/kg/day chronic infusion, per os 0.1-1 microg/kg/day for 4 weeks; cited from earlier work
normotensive rats = conditions: cited from earlier work
Solubility in water = type: physicochemical
Procedure: A mixture of 5.00 grams of rostafuroxin (amorphous or any other crystalline form) and 50 ml of absolute ethanol was stirred until clearness. This solution was than added dropwise into 250 ml of water at room temperature under vigorous stirring at room temperature. At the end of addiction, the mixture was filtered and washed with deionized water. The product was dried under vacuum at 40° C. for 16 hours. The product contained 10.6% of water, corresponding to about 2.5 moles of water per mole of rostafuroxin (rostafuroxin.2.5H2O). Yield: 55%.

C[C@@H]1O[C@@H](O[C@H]2C[C@@H](O)[C@]3(CO)[C@H]4[C@H](O)C[C@]5(C)[C@@H](C6=CC(=O)OC6)CC[C@]5(O)[C@@H]4CC[C@]3(O)C2)[C@H](O)[C@H](O)[C@H]1O [ouabain, reference compound]
concentration that stimulated the Na—K pump at Vmax (Na—K pump; incubation for 5 days): 10^−10 to 10^−8 M

C[C@]12CC[C@H](O)C[C@H]1CC[C@@H]1[C@@H]2CC[C@]2(C)[C@@](O)(c3ccoc3)CC[C@]12O [rostafuroxin, 17β-(3-furyl)-5β-androstane-3β,14β,17α-triol]
IC50 [1]: 1700 nM
interaction with other receptors involved in blood pressure regulation or hormonal control [2]: without interacting
concentrations that abolished the ouabain-dependent increase in the Na—K pump rate (Na—K pump): 10^−14 to 10^−9 M
stimulation of the Na—K pump at Vmax (same effect as ouabain) (Na—K pump): showed the same effect at micromolar concentration
increase in blood pressure caused by ouabain [3]: abolished
increase in renal Na—K ATPase activity caused by ouabain [3]: abolished
blood pressure (normotensive rats): did not affect
renal Na—K ATPase activity (normotensive rats): did not affect

CC12CCC(O)CC1CCC1C2CCC2(C)C(O)(c3ccoc3)CCC12O (stereo not drawn) [Form F, 17β-(3-furyl)-5β-androstane-3β,14β,17α-triol]
solubility in water (Solubility in water): low solubility
